What was measured:
VA-13 = experiment: Cell viability, telomerase-negative cells; format: cell-based; conditions: VA-13, up to 100 μM
[1] = Liver microsomal stability assay; format: in vitro ADME; conditions: in words
Protocol: Liver Microsomal Stability Assay. Assay was conducted using the Corning UltraPool HLM 150 Mixed Gender microsomal kit (Corning Life Sciences) according to the manufacturer's protocol.

[2] = N-acetyl serine and N-acetyl lysine reactivity; format: physicochemical; conditions: HPLC
Protocol: N-Acetyl Cysteine, N-Acetyl Lysine and N-Acetyl Serine Kinetic Studies. Assay was conducted as described with minor modifications.^81-84 Briefly, a 1 mM stock solution of NU-1 with internal standard (phenacetin) in DMSO was added to a 50 mM solution of either N-acetyl cysteine, N-acetyl lysine or N-acetyl serine in 67 mM phosphate buffer (pH 7.4), as well as added to a solution of 67 mM phosphate buffer (pH 7.4) control. Samples were taken every 2 min for 2 h and quenched immediately with MeOH and centrifuged upon sampling. Samples were placed on a Waters Acquity UPLC-MS system and measured for the ratio of NU-1 to internal standard intensity to calculate the amount of NU-1 present at each time point relative to the amount of NU-1 at the first injection of the compound in buffer. Assay was conducted in triplicate.

[3] = biological target: T1, endogenous telomerase in MCF-7 and A549 cells (Homo sapiens, UniProt O14746); experiment: Endogenous telomerase activity after cell treatment (primer extension); format: cell-based; conditions: 10 μM, 24 h
T1 construct: endogenous in cells; host or cells: MCF-7 and A549
T1 sequence (O14746 whole entry): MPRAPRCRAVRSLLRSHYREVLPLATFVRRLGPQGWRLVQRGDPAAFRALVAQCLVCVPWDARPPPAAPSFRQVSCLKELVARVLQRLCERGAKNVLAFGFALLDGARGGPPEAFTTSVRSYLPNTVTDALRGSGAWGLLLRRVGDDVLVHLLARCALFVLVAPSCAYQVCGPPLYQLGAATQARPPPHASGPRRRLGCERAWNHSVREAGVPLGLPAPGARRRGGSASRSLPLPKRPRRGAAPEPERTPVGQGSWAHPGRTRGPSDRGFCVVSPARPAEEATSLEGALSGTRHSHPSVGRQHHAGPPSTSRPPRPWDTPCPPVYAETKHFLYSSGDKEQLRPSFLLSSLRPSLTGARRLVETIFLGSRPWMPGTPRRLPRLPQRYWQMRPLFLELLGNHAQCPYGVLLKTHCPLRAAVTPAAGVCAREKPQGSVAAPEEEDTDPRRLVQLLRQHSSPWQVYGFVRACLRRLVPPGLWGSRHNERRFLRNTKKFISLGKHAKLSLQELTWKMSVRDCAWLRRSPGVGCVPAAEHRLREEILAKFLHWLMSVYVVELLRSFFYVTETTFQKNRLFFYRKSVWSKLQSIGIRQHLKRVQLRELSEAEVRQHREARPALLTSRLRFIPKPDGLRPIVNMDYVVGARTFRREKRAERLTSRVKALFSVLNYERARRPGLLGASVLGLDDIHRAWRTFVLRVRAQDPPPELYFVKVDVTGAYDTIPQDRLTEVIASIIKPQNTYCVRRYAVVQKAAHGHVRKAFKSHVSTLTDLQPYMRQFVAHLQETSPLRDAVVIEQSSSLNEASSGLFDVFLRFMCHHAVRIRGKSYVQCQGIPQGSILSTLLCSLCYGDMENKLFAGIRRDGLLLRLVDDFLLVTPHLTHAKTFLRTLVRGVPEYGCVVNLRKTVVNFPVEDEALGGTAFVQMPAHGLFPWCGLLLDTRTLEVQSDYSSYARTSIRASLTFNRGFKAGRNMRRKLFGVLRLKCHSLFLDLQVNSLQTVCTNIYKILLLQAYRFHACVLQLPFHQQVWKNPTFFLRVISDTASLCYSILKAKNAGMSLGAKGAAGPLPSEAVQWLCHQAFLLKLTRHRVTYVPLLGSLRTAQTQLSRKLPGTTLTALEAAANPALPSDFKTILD
T1 sequence (O60832 whole entry partner): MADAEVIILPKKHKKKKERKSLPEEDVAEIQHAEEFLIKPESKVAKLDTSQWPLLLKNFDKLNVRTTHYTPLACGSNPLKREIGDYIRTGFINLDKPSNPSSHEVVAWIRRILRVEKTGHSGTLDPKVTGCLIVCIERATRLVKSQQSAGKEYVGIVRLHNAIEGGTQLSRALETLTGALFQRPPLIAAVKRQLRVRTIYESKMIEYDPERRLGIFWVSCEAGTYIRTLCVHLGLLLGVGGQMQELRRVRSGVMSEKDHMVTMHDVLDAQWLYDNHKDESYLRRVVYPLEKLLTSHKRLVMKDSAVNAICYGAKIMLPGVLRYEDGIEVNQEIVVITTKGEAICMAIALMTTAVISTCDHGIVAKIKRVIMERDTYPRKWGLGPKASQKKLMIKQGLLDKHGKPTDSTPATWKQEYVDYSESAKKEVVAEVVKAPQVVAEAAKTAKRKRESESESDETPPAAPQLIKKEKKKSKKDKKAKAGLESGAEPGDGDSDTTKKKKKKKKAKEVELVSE
T1 sequence (Q9NPE3 whole entry partner): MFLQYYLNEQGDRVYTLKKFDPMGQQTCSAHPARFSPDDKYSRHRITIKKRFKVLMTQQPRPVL
T1 sequence (Q9NX24 whole entry partner): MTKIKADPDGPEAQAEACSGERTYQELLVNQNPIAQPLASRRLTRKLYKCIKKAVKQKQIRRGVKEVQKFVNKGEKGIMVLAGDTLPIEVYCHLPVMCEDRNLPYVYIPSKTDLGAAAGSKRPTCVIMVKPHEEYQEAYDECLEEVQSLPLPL
T1 sequence (Q9NY12 whole entry partner): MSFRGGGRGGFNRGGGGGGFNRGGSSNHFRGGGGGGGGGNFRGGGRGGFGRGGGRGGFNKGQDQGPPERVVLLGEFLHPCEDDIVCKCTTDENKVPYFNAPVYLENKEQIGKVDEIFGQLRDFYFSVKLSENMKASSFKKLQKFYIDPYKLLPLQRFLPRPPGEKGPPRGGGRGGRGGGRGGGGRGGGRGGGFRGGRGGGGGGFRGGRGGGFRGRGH
T1 sequence (Q9BUR4 whole entry partner): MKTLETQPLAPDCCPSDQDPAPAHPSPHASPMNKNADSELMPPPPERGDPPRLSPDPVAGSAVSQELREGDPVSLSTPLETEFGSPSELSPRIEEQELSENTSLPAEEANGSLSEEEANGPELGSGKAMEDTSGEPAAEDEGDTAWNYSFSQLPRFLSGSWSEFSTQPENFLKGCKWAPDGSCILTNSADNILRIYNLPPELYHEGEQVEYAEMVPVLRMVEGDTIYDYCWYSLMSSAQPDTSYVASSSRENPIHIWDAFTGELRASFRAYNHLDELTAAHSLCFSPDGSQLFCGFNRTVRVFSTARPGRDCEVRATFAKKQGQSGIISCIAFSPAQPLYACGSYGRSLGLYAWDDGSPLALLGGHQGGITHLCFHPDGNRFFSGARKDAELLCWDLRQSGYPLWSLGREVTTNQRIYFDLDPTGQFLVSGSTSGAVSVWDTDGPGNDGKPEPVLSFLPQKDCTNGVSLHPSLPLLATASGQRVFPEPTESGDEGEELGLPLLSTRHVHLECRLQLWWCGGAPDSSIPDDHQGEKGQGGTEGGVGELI
Protocol: For FIG. 4C, the control or treated cells were prepared and collected as pellets of 5×10^6 cells each at NW and pellets were shipped to CMRI on dry ice. Frozen cell pellets were thawed on wet ice and suspended in 1 mL telomerase buffer supplemented with 1 mM PMSF. Endogenous telomerase was immunopurified and assayed as described.

C=C1C(=O)[C@](C)(C(=O)OC)[C@H](CCc2cn(Cc3ccc(F)cc3F)nn2)O[C@@H]1C [NU-1, methyl (2S,3R,6R)-2-(2-(1-(2,4-difluorobenzyl)-1H-1,2,3-triazol-4-yl)ethyl)-3,6-dimethyl-5 methylene-4-oxotetrahydro-2H-pyran-3-carboxylate]
effect on viability (VA-13): did not affect viability
microsomal stability [1]: satisfactory performance
amino acid adducts [2]: No amino acid adducts were found
endogenous telomerase activity [3]: completely eliminated

From patent US11518750B2, “3-methylideneoxan-4-one compounds and substituted derivatives thereof as inhibitors of telomerase” (NORTHWESTERN UNIVERSITY, priority 2019, dated 2022)
